In patent US20110015221A1, “PHARMACEUTICAL COMPOSITION OF VINFLUNINE WHICH IS INTENDED FOR PARENTERAL ADMINISTRATION PREPARATION METHOD THEREOF AND USE OF SAME” (PIERRE FABRE MEDICAMENT, priority 2003, published 2011):
In brackets after ≈: the same amount, converted by molar mass.

Key:
[1] = Stability at 25° C.: total amount of vinflunine-related impurities, pulverulent form vs aqueous solution; assay type: physicochemical
Source text: The stability is monitored by observing the changes in the total amount of vinflunine-related impurities present.

[2] = Solubility; conditions: water

Compound: CC[C@]12C=CCN3CC[C@@]4(c5cc([C@@]6(C(=O)OC)CC7CC(C(C)(F)F)CN(Cc8c6[nH]c6ccccc86)C7)c(OC)cc5N(C)[C@H]4C(O)(C(=O)OC)[C@@H]1OC(C)=O)[C@@H]32 (stereo partly drawn) [batch 503, 20′,20′-difluoro-3′,4′-dihyrovinorelbine L(+)-tartrate]
- increase of the total amount of vinflunine-related impurities ([1]; after storage for 6 months at 25° C.): 197%
- % impurity relative to 100% of active principle (total vinflunine-related impurities) ([1]; t0): 1.17%
- % impurity relative to 100% of active principle (total vinflunine-related impurities) ([1]; t3 months, storage at 25° C.): 2.75%
- % impurity relative to 100% of active principle (total vinflunine-related impurities) ([1]; t6 months, storage at 25° C.): 3.48%

Compound: CC[C@]12C=CCN3CC[C@@]4(c5cc([C@@]6(C(=O)OC)CC7CC(C(C)(F)F)CN(Cc8c6[nH]c6ccccc86)C7)c(OC)cc5N(C)[C@H]4C(O)(C(=O)OC)[C@@H]1OC(C)=O)[C@@H]32 (stereo partly drawn) [vinflunine, 20′,20′-difluoro-3′,4′-dihydrovinorelbine]
- solubility [2]: 290 to 330 mg/mL (≈ 355 to 404 mM)

Compound: CCC1=C[C@@H]2CN(C1)Cc1c([nH]c3ccccc13)[C@@](C(=O)OC)(c1cc3c(cc1OC)N(C)[C@H]1[C@@](O)(C(=O)OC)[C@H](OC(C)=O)[C@]4(CC)C=CCN5CC[C@]31[C@@H]54)C2 [vinorelbine]
- solubility [2]: 1000 mg/mL (≈ 1280 mM)
